Data published in the NIST ThermoML archive (doi:10.1016/j.tca.2005.12.008).
Numbers after ± are expanded uncertainties.

Assay: molar heat capacity at constant pressure
Conditions: 101.33 kPa, Crystal, Small (less than 1 g) adiabatic calorimetry

For O.O=C([O-])[C@H](O)[C@@H](O)CO.O=C([O-])[C@H](O)[C@@H](O)CO.[Cu+2] [copper(II) (2R,3S)-2,3,4-trihydroxybutanoate hydrate], the “molar heat capacity at constant pressure” value (77.95 K) was 157.12 ± 1.1 J/K/mol, the “molar heat capacity at constant pressure” value (78.77 K) was 158.43 ± 1.1 J/K/mol and the “molar heat capacity at constant pressure” value (79.58 K) was 159.75 ± 1.1 J/K/mol. For the same compound, the “molar heat capacity at constant pressure” value (81.05 K) was 161.91 ± 1.2 J/K/mol, the “molar heat capacity at constant pressure” value (83.23 K) was 165.7 ± 1.2 J/K/mol and the “molar heat capacity at constant pressure” value (85.3 K) was 168.87 ± 1.2 J/K/mol. For the same compound, the “molar heat capacity at constant pressure” value (87.33 K) was 172.05 ± 1.2 J/K/mol, the “molar heat capacity at constant pressure” value (89.3 K) was 175.55 ± 1.3 J/K/mol and the “molar heat capacity at constant pressure” value (91.24 K) was 178.89 ± 1.2 J/K/mol. For the same compound, the “molar heat capacity at constant pressure” value (93.14 K) was 182.28 ± 1.3 J/K/mol, the “molar heat capacity at constant pressure” value (95.01 K) was 185.29 ± 1.3 J/K/mol and the “molar heat capacity at constant pressure” value (96.85 K) was 188.44 ± 1.3 J/K/mol. The “molar heat capacity at constant pressure” value (98.65 K) was 191.21 ± 1.3 J/K/mol, the “molar heat capacity at constant pressure” value (100.44 K) was 194.62 ± 1.4 J/K/mol and the “molar heat capacity at constant pressure” value (102.18 K) was 197.16 ± 1.4 J/K/mol. The “molar heat capacity at constant pressure” value (103.92 K) was 200.13 ± 1.4 J/K/mol, the “molar heat capacity at constant pressure” value (105.63 K) was 203.01 ± 1.4 J/K/mol and the “molar heat capacity at constant pressure” value (107.32 K) was 205.34 ± 1.4 J/K/mol. The “molar heat capacity at constant pressure” value (109 K) was 207.51 ± 1.4 J/K/mol, the “molar heat capacity at constant pressure” value (110.66 K) was 210.17 ± 1.5 J/K/mol and the “molar heat capacity at constant pressure” value (112.29 K) was 213.09 ± 1.5 J/K/mol. For the same compound, the “molar heat capacity at constant pressure” value (113.91 K) was 215.33 ± 1.5 J/K/mol, the “molar heat capacity at constant pressure” value (115.53 K) was 217.99 ± 1.5 J/K/mol and the “molar heat capacity at constant pressure” value (117.12 K) was 220.64 ± 1.5 J/K/mol. For the same compound, the “molar heat capacity at constant pressure” value (118.7 K) was 222.67 ± 1.5 J/K/mol, the “molar heat capacity at constant pressure” value (120.28 K) was 224.56 ± 1.6 J/K/mol and the “molar heat capacity at constant pressure” value (121.83 K) was 227.52 ± 1.6 J/K/mol. For the same compound, the “molar heat capacity at constant pressure” value (123.37 K) was 230.1 ± 1.6 J/K/mol, the “molar heat capacity at constant pressure” value (124.9 K) was 231.86 ± 1.6 J/K/mol and the “molar heat capacity at constant pressure” value (127.77 K) was 236.46 ± 1.6 J/K/mol. The “molar heat capacity at constant pressure” value (132.03 K) was 242.38 ± 1.7 J/K/mol, the “molar heat capacity at constant pressure” value (136.29 K) was 248.21 ± 1.7 J/K/mol and the “molar heat capacity at constant pressure” value (140.39 K) was 253.18 ± 1.7 J/K/mol. The “molar heat capacity at constant pressure” value (144.49 K) was 258.87 ± 1.8 J/K/mol, the “molar heat capacity at constant pressure” value (148.5 K) was 263.42 ± 1.8 J/K/mol and the “molar heat capacity at constant pressure” value (152.44 K) was 269.25 ± 1.9 J/K/mol. For the same compound, the “molar heat capacity at constant pressure” value (156.37 K) was 273.65 ± 1.9 J/K/mol, the “molar heat capacity at constant pressure” value (160.22 K) was 278.91 ± 1.9 J/K/mol and the “molar heat capacity at constant pressure” value (163.99 K) was 283.6 ± 1.9 J/K/mol. The “molar heat capacity at constant pressure” value (167.76 K) was 289.57 ± 2 J/K/mol, the “molar heat capacity at constant pressure” value (171.53 K) was 294.4 ± 2 J/K/mol and the “molar heat capacity at constant pressure” value (175.22 K) was 298.81 ± 2 J/K/mol. For the same compound, the “molar heat capacity at constant pressure” value (178.91 K) was 303.93 ± 2.1 J/K/mol, the “molar heat capacity at constant pressure” value (182.51 K) was 308.62 ± 2.1 J/K/mol and the “molar heat capacity at constant pressure” value (186.04 K) was 314.59 ± 2.1 J/K/mol. For the same compound, the “molar heat capacity at constant pressure” value (189.63 K) was 319.74 ± 2.2 J/K/mol, the “molar heat capacity at constant pressure” value (193.17 K) was 324.58 ± 2.2 J/K/mol and the “molar heat capacity at constant pressure” value (196.61 K) was 329.37 ± 2.2 J/K/mol. For the same compound, the “molar heat capacity at constant pressure” value (200.05 K) was 333.92 ± 2.3 J/K/mol, the “molar heat capacity at constant pressure” value (203.48 K) was 338.93 ± 2.3 J/K/mol and the “molar heat capacity at constant pressure” value (206.76 K) was 344.03 ± 2.4 J/K/mol. The “molar heat capacity at constant pressure” value (210.14 K) was 349.72 ± 2.4 J/K/mol, the “molar heat capacity at constant pressure” value (213.41 K) was 353.68 ± 2.4 J/K/mol and the “molar heat capacity at constant pressure” value (216.7 K) was 358.82 ± 2.4 J/K/mol. The “molar heat capacity at constant pressure” value (219.87 K) was 365.27 ± 2.5 J/K/mol, the “molar heat capacity at constant pressure” value (223.07 K) was 370.33 ± 2.5 J/K/mol and the “molar heat capacity at constant pressure” value (226.27 K) was 374.9 ± 2.5 J/K/mol. The “molar heat capacity at constant pressure” value (229.39 K) was 380.28 ± 2.6 J/K/mol, the “molar heat capacity at constant pressure” value (232.43 K) was 385.56 ± 2.6 J/K/mol and the “molar heat capacity at constant pressure” value (235.45 K) was 390.94 ± 2.7 J/K/mol. The “molar heat capacity at constant pressure” value (238.48 K) was 396.17 ± 2.7 J/K/mol, the “molar heat capacity at constant pressure” value (241.43 K) was 401.58 ± 2.7 J/K/mol and the “molar heat capacity at constant pressure” value (244.3 K) was 406.42 ± 2.8 J/K/mol. The “molar heat capacity at constant pressure” value (247.25 K) was 410.96 ± 2.8 J/K/mol, the “molar heat capacity at constant pressure” value (250.17 K) was 415.09 ± 2.8 J/K/mol and the “molar heat capacity at constant pressure” value (253.07 K) was 420.05 ± 2.9 J/K/mol. The “molar heat capacity at constant pressure” value (255.94 K) was 424.32 ± 2.9 J/K/mol, the “molar heat capacity at constant pressure” value (258.81 K) was 430.57 ± 2.9 J/K/mol and the “molar heat capacity at constant pressure” value (261.59 K) was 435.83 ± 3 J/K/mol. For the same compound, the “molar heat capacity at constant pressure” value (264.38 K) was 439.95 ± 3 J/K/mol, the “molar heat capacity at constant pressure” value (267.25 K) was 446.35 ± 3 J/K/mol and the “molar heat capacity at constant pressure” value (269.95 K) was 449.9 ± 3 J/K/mol. For the same compound, the “molar heat capacity at constant pressure” value (272.74 K) was 455.45 ± 3.1 J/K/mol, the “molar heat capacity at constant pressure” value (275.44 K) was 460.56 ± 3.1 J/K/mol and the “molar heat capacity at constant pressure” value (278.15 K) was 465.27 ± 3.1 J/K/mol. For the same compound, the “molar heat capacity at constant pressure” value (280.87 K) was 471.63 ± 3.2 J/K/mol, the “molar heat capacity at constant pressure” value (283.46 K) was 476.96 ± 3.2 J/K/mol and the “molar heat capacity at constant pressure” value (286.11 K) was 481.85 ± 3.3 J/K/mol. For the same compound, the “molar heat capacity at constant pressure” value (288.64 K) was 486.29 ± 3.3 J/K/mol, the “molar heat capacity at constant pressure” value (291.26 K) was 492.12 ± 3.3 J/K/mol and the “molar heat capacity at constant pressure” value (293.8 K) was 496.38 ± 3.4 J/K/mol. The “molar heat capacity at constant pressure” value (296.18 K) was 501.64 ± 3.4 J/K/mol, the “molar heat capacity at constant pressure” value (298.72 K) was 506.76 ± 3.4 J/K/mol and the “molar heat capacity at constant pressure” value (301.34 K) was 511.59 ± 3.5 J/K/mol. For the same compound, the “molar heat capacity at constant pressure” value (304.73 K) was 517.6 ± 3.5 J/K/mol, the “molar heat capacity at constant pressure” value (308.01 K) was 525.08 ± 3.5 J/K/mol and the “molar heat capacity at constant pressure” value (311.68 K) was 533.37 ± 3.6 J/K/mol. The “molar heat capacity at constant pressure” value (315.35 K) was 539.96 ± 3.6 J/K/mol, the “molar heat capacity at constant pressure” value (318.3 K) was 546.62 ± 3.7 J/K/mol and the “molar heat capacity at constant pressure” value (321.22 K) was 553.21 ± 3.7 J/K/mol. The “molar heat capacity at constant pressure” value (324.17 K) was 560.99 ± 3.8 J/K/mol, the “molar heat capacity at constant pressure” value (327.09 K) was 567.58 ± 3.8 J/K/mol and the “molar heat capacity at constant pressure” value (330.19 K) was 573.7 ± 3.9 J/K/mol. For the same compound, the “molar heat capacity at constant pressure” value (333.38 K) was 581.34 ± 3.9 J/K/mol, the “molar heat capacity at constant pressure” value (336.12 K) was 586.57 ± 4 J/K/mol and the “molar heat capacity at constant pressure” value (338.87 K) was 593.18 ± 4 J/K/mol. The “molar heat capacity at constant pressure” value (341.62 K) was 602.58 ± 4.1 J/K/mol, the “molar heat capacity at constant pressure” value (344.26 K) was 609.21 ± 4.1 J/K/mol and the “molar heat capacity at constant pressure” value (346.73 K) was 617.4 ± 4.2 J/K/mol. For the same compound, the “molar heat capacity at constant pressure” value (349.06 K) was 625.08 ± 4.2 J/K/mol, the “molar heat capacity at constant pressure” value (351.28 K) was 633.61 ± 4.3 J/K/mol and the “molar heat capacity at constant pressure” value (353.44 K) was 639.41 ± 4.3 J/K/mol. The “molar heat capacity at constant pressure” value (355.51 K) was 652.09 ± 4.4 J/K/mol.
